Experimental data taken from PubChem BioAssay (NCI).
“And” between values parts separate entries of the source, which are not always exact repeats. Identical values can stand only once.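 The compound was tested at five concentrations on cells cultured in 96-well plates, with a 48-hour exposure period. The concentration for 50% growth inhibition is given as GI50. TGI marks complete inhibition of growth.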

Experiments:
Test in all cases: DTP human tumour cell line panel, 48 h
HL-60(TB) leukemia = system: HL-60(TB) leukemia
SK-MEL-2 melanoma = system: SK-MEL-2 melanoma
SN12C renal = system: SN12C renal
ACHN renal = system: ACHN renal
NCI-H23 lung = system: NCI-H23 lung
MDA-MB-231 breast = system: MDA-MB-231 breast
HOP-92 NSCLC = system: HOP-92 NSCLC
TK-10 renal = system: TK-10 renal
SF-268 CNS = system: SF-268 CNS

SMILES | TGI (HL-60(TB) leukemia) [µM] | TGI (SK-MEL-2 melanoma) [µM] | TGI (SN12C renal) [µM] | TGI (ACHN renal) [µM] | TGI (NCI-H23 lung) [µM] | TGI (MDA-MB-231 breast) | TGI (HOP-92 NSCLC) [µM] | TGI (TK-10 renal) [µM] | TGI (SF-268 CNS) [µM] | GI50 (HL-60(TB) leukemia) [µM] | GI50 (SN12C renal) [µM] | GI50 (ACHN renal) [µM] | GI50 (MDA-MB-231 breast) | GI50 (SF-268 CNS) [µM] | GI50 (HOP-92 NSCLC) [µM] | GI50 (TK-10 renal) [µM] | GI50 (SK-MEL-2 melanoma) [µM] | GI50 (NCI-H23 lung) [µM]
CCOC(=O)c1c(N)sc2c1C(C(=O)OCC)CCC2 (stereo not given) | > 100 | > 100 | > 100 | > 100 | > 100 | > 100 µM | > 100 | > 100 | – | – | – | – | – | – | – | – | – | –
COc1cccc(C23CCCC(C2)N(C)CC3OC(=O)c2ccccc2)c1OC (stereo not given) | 28.3 | > 100 | – | > 100 | 44.6 | – | – | – | > 100 | – | – | – | – | – | – | – | – | –
Cc1ccc(/C=C2/NC(=S)SC2=O)cc1 | > 100 | > 100 | > 100 | > 100 | 64.8 | 83.4 µM | > 100 | 53.9 | – | – | – | – | – | – | – | – | – | –
COc1cc(CNC(=S)CCCCCCCCCCC(C)C)ccc1O | 70.2 | – | > 100 | > 100 | > 100 | > 100 µM | 68 | > 100 | > 100 | – | – | – | – | – | – | – | – | –
O=[N+]([O-])c1ccc2c(c1)n1c(N3CCCC3)[n+]3ccccc3c1c1c3cccc[n+]3c(N3CCCC3)n21 | 94.1 | > 100 | > 100 | – | > 100 | > 100 µM | > 100 | > 100 | 42.6 | – | – | – | – | – | – | – | – | –
C=C(C)[C@@H]1CC[C@]2(CO)CC[C@]3(C)[C@H](CC[C@@H]4[C@@](C)(CCCN)[C@H](C(=C)C)CC[C@]43C)[C@@H]12 | 3.61 | – | 2.75 | 3.21 | – | 3.19 µM | 2.82 | 3.39 | 3.06 | 1.78 | 1.39 | 1.82 | 1.75 µM | 1.53 | 1.38 | 1.77 | – | –
COc1cc2c(c(OC)c1)C(=O)O[C@H](C)CCCC/C=C/C2 | 4.45 | 31.1 | 13.6 | > 30.6 | > 100 | > 31.9 µM | 25.7 | > 33.8 | – | – | – | – | – | – | – | – | – | –
CCN(CCCl)c1cccc(NC(=O)c2ccc(C(=O)Nc3cccc(CN(C)C)c3)cc2)c1 | 12.7 | 0.0856 | 2.44 | 0.624 | 1.15 | – | 1.6 | 0.779 | 4.87 | – | – | – | – | – | – | – | – | –
CCOC(=O)CCC(NC(=O)OCc1ccccc1)C(=O)NC(CCC(=O)OCC)C(=O)NC(CCC(=O)OCC)C(=O)NNC(=O)OC(C)(C)C (stereo not given) | > 100 | > 100 | > 100 | > 100 | > 100 | > 100 µM | > 100 | > 100 | – | – | – | – | – | – | – | – | – | –
N#C/C(C(=O)Nc1ccccc1)=C(/N)N1CCCCC1 | – | > 100 | > 100 | > 100 | > 100 | – | > 100 | – | – | – | – | – | – | – | – | – | – | –
Cn1ccc2c(c1=O)C(=O)OC2(C)C | > 100 | – | > 100 | > 100 | > 100 | > 100 µM | – | > 100 | > 100 | – | – | – | – | – | – | – | – | –
Cn1c(=O)n(CC2CS2)c2ccccc21 (stereo not given) | > 100 | > 100 | > 100 | > 100 | – | – | > 100 | > 100 | > 100 | – | – | – | – | – | – | – | – | –
O=c1nc2ccc3sc4ccccc4c(=O)c3n2c(=O)[nH]1 | > 100 | – | > 100 | > 100 | > 100 | > 100 µM | – | > 100 | > 100 | – | – | – | – | – | – | – | – | –
NC(=S)N/N=C1\CCCC1C(O)(C(F)(F)Cl)C(F)(F)Cl (stereo not given) | – | > 10 | > 10 | > 10 | > 10 | > 10 µM | > 10 | > 10 | > 10 | – | – | – | – | – | – | – | – | –
CC1(C)[C@@H](OC(N)=O)C=C[C@]2(CO)[C@H]3CC[C@]4(C)[C@@H](c5ccc(=O)oc5)[C@@H](Cl)C[C@]4(O)C3=CC[C@@H]12 | – | 0.0294 | 0.0157 | 0.00262 | 0.0113 | 0.0588 µM and 0.159 µM | 0.0513 | – | 0.00254 | – | < 0.0001 | < 0.0001 | 0.017 µM and 0.0025 µM | < 0.0001 | 0.00862 | – | 0.00402 | < 0.0001
COc1ccc2c(c1)C(=O)C1CCC(=O)N1C2c1ccc2c(c1)OCO2 (stereo not given) | 42.4 | 41.6 | 24.4 | 38.3 | 39.8 | 54.6 µM | – | 86.1 | 53.3 | – | – | – | – | – | – | – | – | –
CC(C#N)N(CCc1ccccc1)C(=O)c1ccccc1 (stereo not given) | > 100 | > 100 | > 100 | > 100 | > 100 | > 100 µM | – | > 100 | > 100 | – | – | – | – | – | – | – | – | –
COc1cc2oc(=O)cc(C)c2c(OC)c1OC(C)=O | – | > 100 | > 100 | > 100 | > 100 | > 100 µM | – | > 100 | > 100 | – | – | – | – | – | – | – | – | –
COc1cc2oc(=O)cc(C)c2cc1OC | – | > 100 | > 100 | > 100 | > 100 | > 100 µM | – | > 100 | > 100 | – | – | – | – | – | – | – | – | –
O=P(O)(O)C=C=C1CCCCC1 | > 100 | > 100 | > 100 | > 100 | > 100 | – | > 100 | > 100 | > 100 | – | – | – | – | – | – | – | – | –
COC(=O)/C=c1/c2ccccc2n2c1c1ccccc1[n+]2C | 8.44 | 11.6 | 16.4 | 14.7 | 11.4 | 26 µM | – | 9.93 | 22.8 | – | – | – | – | – | – | – | – | –
CC(=Nc1cc(Cl)cc(Cl)c1)c1ccncc1 | – | > 100 | > 100 | > 100 | > 100 | > 100 µM | > 100 | > 100 | > 100 | – | – | – | – | – | – | – | – | –
Cc1cc2nc(-c3c(N)ncc(C#N)c3-c3ccc(Cl)cc3)[nH]c2cc1C | – | > 100 | > 100 | > 100 | 30.7 | 44.2 µM | 5.23 | 21.3 | 84.2 | – | 31 | 11.1 | 10.5 µM | 19.8 | 0.275 | 4.67 | 20.4 | 8.1
CCn1c(=O)c2c3ccc(OC(C)=O)cc3[nH]c2c2ccc(OC(C)=O)cc21 | – | – | > 100 | 89.6 | > 100 | > 100 µM | > 100 | > 100 | > 100 | – | – | – | – | – | – | – | – | –
